According to US20240246946A1, “MODULATORS OF TREX1” (Constellation Pharmaceuticals, Inc., priority 2021, published 2024):

Columns and labels:
hTREX1 = molecular target: T1, hTREX1 (Homo sapiens, UniProt Q9NSU2); assay: hTREX1 HCT116 Cell Assay (HCT116 dual cells, Lucia luciferase reporter of Type I interferon induction); type: cell-based; settings: TREX1i 4 h before pBR322/BstNI transfection, read after 48 h
T1 construct: host or cells: HCT116 dual cells
T1 sequence (Q9NSU2 1-314): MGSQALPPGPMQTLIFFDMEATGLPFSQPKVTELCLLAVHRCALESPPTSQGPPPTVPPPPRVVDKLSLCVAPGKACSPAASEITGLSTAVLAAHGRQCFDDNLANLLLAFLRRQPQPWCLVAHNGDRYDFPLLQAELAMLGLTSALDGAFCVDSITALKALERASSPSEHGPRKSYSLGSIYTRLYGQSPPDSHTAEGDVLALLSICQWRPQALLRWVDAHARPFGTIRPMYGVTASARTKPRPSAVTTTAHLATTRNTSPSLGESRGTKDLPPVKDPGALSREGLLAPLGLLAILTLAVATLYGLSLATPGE
Procedure, shortened: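 HCT116 dual cells carrying an ISRE-type STAT1/STAT2-driven secreted Lucia luciferase reporter were pretreated with TREX1 inhibitor for 4 h (≤0.1% DMSO), then transfected with pBR322/BstNI DNA (100 ng/well, Lipofectamine LTX). Luciferase in medium read after 48 h at 37 °C.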

full length human TREX1 = molecular target: T2, full length human TREX1 (Homo sapiens, UniProt Q9NSU2); assay: hTREX1 Biochemical Assay (fluorescence, dsDNA substrate degradation); settings: biochemical, read-out: hTREX1 IC50
T2 construct: N-terminally His-Tev tagged full length human TREX1; made in house; host or cells: E. coli
T2 sequence (Q9NSU2 1-314): T1 sequence (Q9NSU2 1-314)
Procedure, shortened: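 Cleavage of 60 nM TEX615/quencher-labelled dsDNA in pH 7.4 Tris buffer with 5 mM MgCl2, 1.0% DMSO, run 18 hours at 25° C, EDTA-quenched; fluorescence read-out.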

full length mouse TREX1 = molecular target: T3, full length mouse TREX1 (Mus musculus, UniProt Q91XB0); assay: mTREX1 Biochemical Assay (fluorescence, dsDNA substrate degradation); settings: biochemical, read-out: mTREX1 IC50
T3 construct: N-terminally His-Tev tagged full length mouse TREX1; made in house; host or cells: E. coli
T3 sequence (Q91XB0 1-314): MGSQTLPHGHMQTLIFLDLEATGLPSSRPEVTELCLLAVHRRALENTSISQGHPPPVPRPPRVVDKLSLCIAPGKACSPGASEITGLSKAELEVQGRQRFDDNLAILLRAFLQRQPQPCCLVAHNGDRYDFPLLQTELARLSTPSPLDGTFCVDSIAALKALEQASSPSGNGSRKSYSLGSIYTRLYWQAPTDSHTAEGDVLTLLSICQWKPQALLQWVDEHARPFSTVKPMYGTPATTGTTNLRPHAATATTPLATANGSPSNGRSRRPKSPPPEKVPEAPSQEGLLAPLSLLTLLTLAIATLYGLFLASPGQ
Procedure, shortened: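 Reaction run 18 h at 25° C. with 60 nM TEX615/quencher-labelled dsDNA and 6 pM mouse TREX1 in Tris buffer (pH 7.4, 5 mM MgCl2, 1.0% DMSO), enzyme having sat 4 h with compound across 10 concentrations. EDTA quench; substrate degradation measured as fluorescence increase.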

[1] = molecular target: T4, human TREX2 (residues M44-A279) (Homo sapiens, UniProt Q9BQ50); assay: hTREX2 Biochemical Assay (fluorescence, dsDNA substrate degradation); settings: biochemical selectivity for hTREX1 vs hTREX2
T4 construct: human TREX2 (residues M44-A279, expressed in E. coli); made in house; host or cells: E. coli
T4 sequence (Q9BQ50 44-279 isoform Q9BQ50-1): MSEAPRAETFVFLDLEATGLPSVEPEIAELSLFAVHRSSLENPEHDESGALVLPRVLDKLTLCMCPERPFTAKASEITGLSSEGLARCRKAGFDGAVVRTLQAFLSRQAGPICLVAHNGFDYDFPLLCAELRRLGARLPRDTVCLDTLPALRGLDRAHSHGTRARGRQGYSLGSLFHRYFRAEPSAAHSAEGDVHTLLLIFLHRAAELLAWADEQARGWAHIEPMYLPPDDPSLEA
Procedure, shortened: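 N-His-Tev E. coli enzyme (50 pM) pre-incubated with compound 4 h at 25 °C, then 60 nM TEX615/quencher dsDNA added; 18 h at 25 °C, pH 7.4 Tris buffer with 5 mM MgCl2, 1.0% DMSO. EDTA-quenched; fluorescence 570 ex/615 em from liberated fluorophore, 10-point dose-response.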

SMILES | IC50 (hTREX1) | IC50 (full length human TREX1) | IC50 (full length mouse TREX1) | hTREX1 vs hTREX2 selectivity [1]
COCCn1cc(C(c2ccccc2C#N)C(C)c2nc(C(=O)Nc3cnoc3)c(O)c(=O)n2C)cn1 (single isomer, unassigned) [Example 9 D2E1] | > 100 nM | 1 to 10 nM | > 10 nM | C (C = >50 fold selective for hTREX1)
Cc1nc(C)c(C(c2ccccc2C#N)C(C)c2nc(C(=O)Nc3cnoc3)c(O)c(=O)n2C)nc1C (single isomer, unassigned) [Example 122 D2E1] | > 100 nM | 1 to 10 nM | > 10 nM | B (B = 25 to 50-fold selective for hTREX1)
CC(c1nc(C(=O)Nc2cnoc2)c(O)c(=O)n1C)C(c1cnn(CCO)c1)c1ccccc1C#N (single isomer, unassigned) [Example 35 D1E1] | > 100 nM | < 1 nM | 1 to 10 nM | C (C = >50 fold selective for hTREX1)
Cc1nccc(C(c2ccccc2C#N)C(C)c2nc(C(=O)Nc3cnoc3)c(O)c(=O)n2C)n1 (single isomer, unassigned) [Example 83 D2E1] | > 100 nM | 1 to 10 nM | > 10 nM | B (B = 25 to 50-fold selective for hTREX1)
COCCn1ncc(C(c2ccccc2C#N)C(C)c2nc(C(=O)Nc3cnoc3)c(O)c(=O)n2C)c1C (single isomer, unassigned) [Example 69 D1E1] | 10 to 100 nM | 1 to 10 nM | 1 to 10 nM | B (B = 25 to 50-fold selective for hTREX1)
CC(c1nc(C(=O)Nc2cnoc2)c(O)c(=O)n1C)C(c1cc(F)ccc1Cl)c1cn(C)nc1C#N (single isomer, unassigned) [Example 89 D1E2] | < 10 nM | < 1 nM | 1 to 10 nM | C (C = >50 fold selective for hTREX1)
CC(c1nc(C(=O)Nc2cnoc2)c(O)c(=O)n1C)C(c1cnn(C)c1)c1ccccc1C#N (single isomer, unassigned) [Example 2 D1E2] | > 100 nM | > 10 nM | > 10 nM | A (A = <25 fold selective for hTREX1)
Cc1cnn(C(c2cc(F)ccc2Cl)C(C)c2nc(C(=O)Nc3cnoc3)c(O)c(=O)n2C)c1 (single isomer, unassigned) [Example 144 D1E2] | > 100 nM | 1 to 10 nM | > 10 nM | A (A = <25 fold selective for hTREX1)
CC(c1nc(C(=O)Nc2cnoc2)c(O)c(=O)n1C)C(c1cnn(C)c1)c1cc(F)c(F)cc1C#N (single isomer, unassigned) [Example 25 D1E1] | < 10 nM | < 1 nM | 1 to 10 nM | C (C = >50 fold selective for hTREX1)

The next lines start with the values.

IC50 (hTREX1) | IC50 (full length human TREX1) | IC50 (full length mouse TREX1) | hTREX1 vs hTREX2 selectivity [1] | SMILES
< 10 nM | < 1 nM | 1 to 10 nM | C (C = >50 fold selective for hTREX1) | Cc1cnc(C)c(C(c2ccccc2C#N)C(C)c2nc(C(=O)Nc3cnoc3)c(O)c(=O)n2C)n1 (single isomer, unassigned) [Example 82 D1E1]
< 10 nM | < 1 nM | 1 to 10 nM | C (C = >50 fold selective for hTREX1) | Cc1cc(C(c2ccccc2C#N)C(C)c2nc(C(=O)Nc3cnoc3)c(O)c(=O)n2C)n(C)n1 (single isomer, unassigned) [Example 63 D1E1]
< 10 nM | < 1 nM | < 1 nM | C (C = >50 fold selective for hTREX1) | Cc1nn(C)cc1C(c1ccccc1C#N)C(C)c1nc(C(=O)Nc2cnoc2)c(O)c(=O)n1C (single isomer, unassigned) [Example 3 D1E1]
10 to 100 nM | < 1 nM | > 10 nM | C (C = >50 fold selective for hTREX1) | Cc1nccc(C(c2ccccc2C#N)C(C)c2nc(C(=O)Nc3cnoc3)c(O)c(=O)n2C)n1 (single isomer, unassigned) [Example 83 D1E1]
